According to the supplement of paper PMC10307832:

Columns and labels:
Test in all cases: relative viability (nuclei count vs DMSO), 5 days (fraction); higher = more cells survive
Selisistat = compound: C1CC(C2=C(C1)C3=C(N2)C=CC(=C3)Cl)C(=O)N [Selisistat]
Summary of the method: (§1)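 Viability was defined as treated-well nuclei divided by vehicle-well nuclei, with the median taken over replicate plates. Cells from lung cancer lines sat overnight at 37 °C in 1536-well plates, received five √10-spaced library-drug doses by pinning on vehicle-anchored plates, and grew 5 days without medium change before one-step fixation, permeabilisation and Hoechst staining, 4× imaging and MetaXpress nuclear counts. Only plates with control CV under 25% and at least one doubling were kept.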

Serdemetan = compound: c1ccc2c(CCNc3ccc(Nc4ccncc4)cc3)c[nH]c2c1 [Serdemetan]
Summary of the method: as §1

Selisistat + Luminespib = compound: C1CC(C2=C(C1)C3=C(N2)C=CC(=C3)Cl)C(=O)N [Selisistat] + CCNC(=O)c1noc(-c2cc(C(C)C)c(O)cc2O)c1-c1ccc(CN2CCOCC2)cc1 [Luminespib] (partner 0.01 µM)
Summary of the method: (§2)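 Relative viability equals treated-well nuclei counts divided by vehicle-well nuclei counts. Counts came from 4× images of lung cancer cell lines grown in 1536-well plates for 5 days after pin-tool dosing on the day after seeding. Dosing used one drug alone or a fixed anchor-drug dose plus five library-drug doses (not always all listed) in √10 steps, and values are medians of duplicate plates.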

Selisistat + Foretinib = compound: C1CC(C2=C(C1)C3=C(N2)C=CC(=C3)Cl)C(=O)N [Selisistat] + COc1cc2c(Oc3ccc(NC(=O)C4(C(=O)Nc5ccc(F)cc5)CC4)cc3F)ccnc2cc1OCCCN1CCOCC1 [Foretinib] (partner 0.25 µM)
Summary of the method: as §2

Selisistat + OSI-027 = compound: C1CC(C2=C(C1)C3=C(N2)C=CC(=C3)Cl)C(=O)N [Selisistat] + COc1cccc2cc(-c3nc([C@H]4CC[C@H](C(=O)O)CC4)n4ncnc(N)c34)[nH]c12 [OSI-027] (partner 0.5 µM)
Summary of the method: as §2

Selisistat + Tozasertib = compound: C1CC(C2=C(C1)C3=C(N2)C=CC(=C3)Cl)C(=O)N [Selisistat] + Cc1cc(Nc2cc(N3CCN(C)CC3)nc(Sc3ccc(NC(=O)C4CC4)cc3)n2)n[nH]1 [Tozasertib] (partner 0.1 µM)
Summary of the method: as §2

Selisistat + Dasatinib = compound: C1CC(C2=C(C1)C3=C(N2)C=CC(=C3)Cl)C(=O)N [Selisistat] + Cc1nc(Nc2ncc(C(=O)Nc3c(C)cccc3Cl)s2)cc(N2CCN(CCO)CC2)n1 [Dasatinib] (partner 0.075 µM)
Summary of the method: as §2

Selisistat + Phenformin = compound: C1CC(C2=C(C1)C3=C(N2)C=CC(=C3)Cl)C(=O)N [Selisistat] + N=C(N)NC(=N)NCCc1ccccc1 [Phenformin] (partner 250 µM)
Summary of the method: as §2

Serdemetan + Luminespib = compound: c1ccc2c(CCNc3ccc(Nc4ccncc4)cc3)c[nH]c2c1 [Serdemetan] + CCNC(=O)c1noc(-c2cc(C(C)C)c(O)cc2O)c1-c1ccc(CN2CCOCC2)cc1 [Luminespib] (partner 0.01 µM)
Summary of the method: as §2

Serdemetan + Foretinib = compound: c1ccc2c(CCNc3ccc(Nc4ccncc4)cc3)c[nH]c2c1 [Serdemetan] + COc1cc2c(Oc3ccc(NC(=O)C4(C(=O)Nc5ccc(F)cc5)CC4)cc3F)ccnc2cc1OCCCN1CCOCC1 [Foretinib] (partner 0.25 µM)
Summary of the method: as §2

Serdemetan + OSI-027 = compound: c1ccc2c(CCNc3ccc(Nc4ccncc4)cc3)c[nH]c2c1 [Serdemetan] + COc1cccc2cc(-c3nc([C@H]4CC[C@H](C(=O)O)CC4)n4ncnc(N)c34)[nH]c12 [OSI-027] (partner 0.5 µM)
Summary of the method: as §2

Serdemetan + Tozasertib = compound: c1ccc2c(CCNc3ccc(Nc4ccncc4)cc3)c[nH]c2c1 [Serdemetan] + Cc1cc(Nc2cc(N3CCN(C)CC3)nc(Sc3ccc(NC(=O)C4CC4)cc3)n2)n[nH]1 [Tozasertib] (partner 0.1 µM)
Summary of the method: as §2

Serdemetan + Dasatinib = compound: c1ccc2c(CCNc3ccc(Nc4ccncc4)cc3)c[nH]c2c1 [Serdemetan] + Cc1nc(Nc2ncc(C(=O)Nc3c(C)cccc3Cl)s2)cc(N2CCN(CCO)CC2)n1 [Dasatinib] (partner 0.075 µM)
Summary of the method: as §2

Serdemetan + Phenformin = compound: c1ccc2c(CCNc3ccc(Nc4ccncc4)cc3)c[nH]c2c1 [Serdemetan] + N=C(N)NC(=N)NCCc1ccccc1 [Phenformin] (partner 250 µM)
Summary of the method: as §2

NCI-H1623
relative viability (Selisistat; 0.4 µM): 1.08 | relative viability (Selisistat; 1.265 µM): 1.08 | relative viability (Selisistat; 4 µM): 0.843 | relative viability (Selisistat; 12.65 µM): 1.09 | relative viability (Selisistat; 40 µM): 1.18 | relative viability (Serdemetan; 0.04 µM): 0.969 | relative viability (Serdemetan; 0.1265 µM): 1.02 | relative viability (Serdemetan; 0.4 µM): 0.961 | relative viability (Serdemetan; 1.265 µM): 0.815 | relative viability (Serdemetan; 4 µM): 0.713 | relative viability (Selisistat + Luminespib; first compound 0.4 µM): 0.701 | relative viability (Selisistat + Luminespib; first compound 1.265 µM): 0.504 | relative viability (Selisistat + Luminespib; first compound 4 µM): 0.315 | relative viability (Selisistat + Luminespib; first compound 12.65 µM): 0.644 | relative viability (Selisistat + Luminespib; first compound 40 µM): 0.503 | relative viability (Selisistat + Foretinib; first compound 0.4 µM): 0.963 | relative viability (Selisistat + Foretinib; first compound 1.265 µM): 0.782 | relative viability (Selisistat + Foretinib; first compound 4 µM): 0.614 | relative viability (Selisistat + Foretinib; first compound 12.65 µM): 0.918 | relative viability (Selisistat + Foretinib; first compound 40 µM): 0.846 | relative viability (Selisistat + OSI-027; first compound 0.4 µM): 0.421 | relative viability (Selisistat + OSI-027; first compound 1.265 µM): 0.413 | relative viability (Selisistat + OSI-027; first compound 4 µM): 0.366 | relative viability (Selisistat + OSI-027; first compound 12.65 µM): 0.46 | relative viability (Selisistat + OSI-027; first compound 40 µM): 0.451 | relative viability (Selisistat + Tozasertib; first compound 0.4 µM): 0.445 | relative viability (Selisistat + Tozasertib; first compound 1.265 µM): 0.433 | relative viability (Selisistat + Tozasertib; first compound 4 µM): 0.355 | relative viability (Selisistat + Tozasertib; first compound 12.65 µM): 0.407 | relative viability (Selisistat + Tozasertib; first compound 40 µM): 0.405 | relative viability (Selisistat + Dasatinib; first compound 0.4 µM): 0.518 | relative viability (Selisistat + Dasatinib; first compound 1.265 µM): 0.587 | relative viability (Selisistat + Dasatinib; first compound 4 µM): 0.41 | relative viability (Selisistat + Dasatinib; first compound 12.65 µM): 0.551 | relative viability (Selisistat + Dasatinib; first compound 40 µM): 0.57 | relative viability (Selisistat + Phenformin; first compound 0.4 µM): 0.557 | relative viability (Selisistat + Phenformin; first compound 1.265 µM): 0.556 | relative viability (Selisistat + Phenformin; first compound 4 µM): 0.413 | relative viability (Selisistat + Phenformin; first compound 12.65 µM): 0.579 | relative viability (Selisistat + Phenformin; first compound 40 µM): 0.533 | relative viability (Serdemetan + Luminespib; first compound 0.04 µM): 0.498 | relative viability (Serdemetan + Luminespib; first compound 0.1265 µM): 0.481 | relative viability (Serdemetan + Luminespib; first compound 0.4 µM): 0.432 | relative viability (Serdemetan + Luminespib; first compound 1.265 µM): 0.551 | relative viability (Serdemetan + Luminespib; first compound 4 µM): 0.427 | relative viability (Serdemetan + Foretinib; first compound 0.04 µM): 0.901 | relative viability (Serdemetan + Foretinib; first compound 0.1265 µM): 0.917 | relative viability (Serdemetan + Foretinib; first compound 0.4 µM): 0.698 | relative viability (Serdemetan + Foretinib; first compound 1.265 µM): 0.756 | relative viability (Serdemetan + Foretinib; first compound 4 µM): 0.703 | relative viability (Serdemetan + OSI-027; first compound 0.04 µM): 0.457 | relative viability (Serdemetan + OSI-027; first compound 0.1265 µM): 0.395 | relative viability (Serdemetan + OSI-027; first compound 0.4 µM): 0.359 | relative viability (Serdemetan + OSI-027; first compound 1.265 µM): 0.389 | relative viability (Serdemetan + OSI-027; first compound 4 µM): 0.395 | relative viability (Serdemetan + Tozasertib; first compound 0.04 µM): 0.421 | relative viability (Serdemetan + Tozasertib; first compound 0.1265 µM): 0.517 | relative viability (Serdemetan + Tozasertib; first compound 0.4 µM): 0.349 | relative viability (Serdemetan + Tozasertib; first compound 1.265 µM): 0.385 | relative viability (Serdemetan + Tozasertib; first compound 4 µM): 0.399 | relative viability (Serdemetan + Dasatinib; first compound 0.04 µM): 0.549 | relative viability (Serdemetan + Dasatinib; first compound 0.1265 µM): 0.628 | relative viability (Serdemetan + Dasatinib; first compound 0.4 µM): 0.359 | relative viability (Serdemetan + Dasatinib; first compound 1.265 µM): 0.442 | relative viability (Serdemetan + Dasatinib; first compound 4 µM): 0.562 | relative viability (Serdemetan + Phenformin; first compound 0.04 µM): 0.618 | relative viability (Serdemetan + Phenformin; first compound 0.1265 µM): 0.617 | relative viability (Serdemetan + Phenformin; first compound 0.4 µM): 0.37 | relative viability (Serdemetan + Phenformin; first compound 1.265 µM): 0.476 | relative viability (Serdemetan + Phenformin; first compound 4 µM): 0.739
